From patent US4695568A, “Thieno[2,3-d]pyrimidine derivatives and salts thereof” (Mitsubishi Chemical Industries Limited, priority 1984, dated 1987)
Read-outs that look alike come from different tables or passages of the source.

Experiments:
[1] = tested on: reserpine-induced hypothermia; test: Antagonistic activity against reserpine-induced hypothermia; format: in vivo, ddY male mice; conditions: Mus musculus, po, read-out: ED50 (dose exhibiting 50% antagonistic activity against reserpine hypothermia)
Description: A. ANTAGONISTIC ACTIVITY AGAINST RESERPINE-INDUCED HYPOTHERMIA
A test was carried out using ddY male mice of 22-25 g in body weight, one group consisting of 6 mice.
The body temperature of mice was approximately 38° C. before the test. At 4 hours after intraperitoneal administration of reserpine in an amount of 5 mg/kg the body temperature of mice was reduced by approximately 8° C. in average. The test compound was simultaneously orally administered with 5 mg/kg of reserpine, and the degree of antagonistic effect of the test compound on the hypothermal action of reserpine was measured. This test has hitherto been the commonest method for evaluating anti-depressant activity.
Percentage (%) of an antagonistic activity was calculated by varying the doses of each test compound.

[2] = Acute toxicity (LD50) in male mice; conditions: mouse, in vivo, po
[3] = tested on: passive avoidance response failure by electric shock; test: Passive avoidance response failure by electric shock as model of amnesia; format: in vivo; conditions: p.o., male Wistar rats, 3 hours or more after oral administration
Description: B. PASSIVE AVOIDANCE RESPONSE FAILURE BY ELECTRIC SHOCK AS MODEL OF AMNESIA
The test apparatus used, called as "Two Compartment Avoidance Box", consisted of a large lit compartment and a small dark compartment having a grid floor to which an electric current can be applied, these two compartments being painted black innerly and connected to each other
Male Wistar rats of 170-220 g in body weight enter into the small box soon after they are introduced into the large box. […] This response is called as "passive avoidance response".
However, if an electric shock of 60 mA, 200 Hz for 0.8 second is given to the rat by electrodes set on both ears of the rat immediately after the rat comes out of the small box upon the application of the electric current, the "passive avoidance response" is inhibited. Indeed, the period for entering into the small box from the large box, latency, is shortened. This phenomenon is caused by loss of memory of the electric current applied from the grid floor by the electric shock. The shortened time of latency is used as an index of the loss of memory.
A memory improvement effect of a test compound is expressed in the degree of prolongation of latency (% improvement) in a test carried out 3 hours or more after the oral administration of the test compound after application of an electric shock.

[4] = mice, test compound orally, simultaneously with reserpine 5 mg/kg, body temperature at 4 hours, Litchfield-Wilcoxon method

Compound	LD50 ([2]; male mice) [mg/kg]	ED50 [1, 4] [mg/kg]	Improvement (prolongation of latency) ([3]; 25 mg/kg) [%]	Improvement (prolongation of latency) ([3]; 100 mg/kg) [%]	LD50 [2] [mg/kg]	further results
CN(C)CCC=C1c2ccccc2CCc2ccccc21 [Amitriptyline, reference compound]	380	–	–	–	–	ED50 ([1]; 4 h): 14.5 mg/kg
Cc1cc2c(-c3ccccc3)nc(N3CCNCC3)nc2s1 [Example 1, 6-METHYL-4-PHENYL-2-PIPERAZINYLTHIENO[2,3-d]PYRIMIDINE]	–	2	6.8	22.7	1170	–
Cc1sc2nc(N3CCNCC3)nc(-c3ccccc3)c2c1C [Example 4, 5,6-dimethyl-4-phenyl-2-piperazinyl-thieno[2,3-d]pyrimidine]	1330	1.8	–	–	–	–
Cc1csc2nc(N3CCNCC3)nc(-c3ccccc3)c12 [Example 5, 5-methyl-4-phenyl-2-piperazinyl-thieno[2,3-d]pyrimidine]	275	4	–	–	–	–
Clc1cc2c(-c3ccccc3)nc(N3CCNCC3)nc2s1 [Example 7, 6-chloro-4-phenyl-2-piperazinyl-thieno[2,3-d]pyrimidine]	–	2.4	–	–	–	–
Cc1cc2c(-c3ccccc3F)nc(N3CCNCC3)nc2s1 [Example 14]	–	0.27	30.9	51.5	1110	–
Cc1cc2c(-c3ccccc3Br)nc(N3CCNCC3)nc2s1 [Example 15]	–	2.9	–	–	1750	–
Cc1cc2c(-c3ccccc3C)nc(N3CCNCC3)nc2s1 [Example 16]	–	0.5	12.8	46.6	1400	–
Cc1cc2c(-c3ccccc3C#N)nc(N3CCNCC3)nc2s1 [Example 20]	–	1.5	–	–	370	–
NC(=O)CN1CCCC1=O [Piracetam, reference compound]	–	–	–	–	–	Improvement (prolongation of latency) ([3]; 250 mg/kg): 22.0%; Improvement (prolongation of latency) ([3]; 500 mg/kg): 14.1%
